Literature values as cited in patent US10294264B2, “Oxysterol-therapeutic agent derivative for bone healing” (Warsaw Orthopedic, Inc., priority 2017, dated 2019).
Read-outs that look alike come from different tables or passages of the source.

Tests used:
spine fusion model [1] = conditions: rabbit spine fusion model
osteoprogenitor cells = conditions: in vitro
spine fusion model [2] = conditions: rat spine fusion model
Mesenchymal stem cells = conditions: mesenchymal stem cells treated with compound

CCCCCC[C@](C)(O)[C@H]1CC[C@H]2[C@@H]3C[C@H](O)[C@H]4C[C@@H](O)CC[C@]4(C)[C@H]3CC[C@@]21C [OXY133, (3S,5S,6S,8R,9S,10R,13S,14S,17S)-17-((S)-2-hydroxyoctan-2-yl)-10,13-dimethylhexadecahydro-1H-cyclopenta[a]phenanthrene-3,6-diol]
bone formation in vivo (spine fusion model [1]): robust bone formation
osteogenic differentiation of osteoprogenitor cells (osteoprogenitor cells): induces osteogenic differentiation
bone formation in vivo (spine fusion model [2]): robust bone formation
osteoblast differentiation (Mesenchymal stem cells): increased osteoblast differentiation
